Experimental data as given in patent publication US9586958B2, “Prodrug derivatives of substituted triazolopyridines” (BAYER PHARMA AKTIENGESELLSCHAFT, priority 2013, dated 2017).
Structures can show the parent of a compound that is named as a salt.

Columns and labels:
[1] = Metabolic stability in vitro, rat liver microsomes (calculation of Fmax); type: in vitro ADME; settings: comparison table with comparative examples
Description: (§1) The metabolic stability of test compounds in vitro was determined by incubating them at 1 μM with a suspension liver microsomes in 100 mM phosphate buffer, pH7.4 (NaH2PO4×H2O+Na2HPO4×2H2O) at a protein concentration of 0.5 mg/mL and at 37° C. The reaction was activated by adding a co-factor mix containing 1.2 mg NADP, 3 IU glucose-6-phosphate dehydrogenase, 14.6 mg glucose-6-phosphate and 4.9 mg MgCl2 in phosphate buffer, pH 7.4. Organic solvent in the incubations was limited to <0.2% dimethylsulfoxide (DMSO) and <1% methanol. During incubation, the microsomal suspensions were continuously shaken and aliquots were taken at 2, 8, 16, 30, 45 and 60 min, to which equal volumes of cold methanol were immediately added. Samples were frozen at −20° C. over night, subsequently centrifuged for 15 minutes at 3000 rpm and the supernatant was analyzed with an Agilent 1200 HPLC-system with LCMS/MS detection.
(§2) The half-life of a test compound was determined from the concentration-time plot. From the half-life the intrinsic clearances were calculated. Together with the additional parameters liver blood flow, specific liver weight and microsomal protein content the hepatic in vivo blood clearance (CL) and the maximal oral bioavailability (Fmax) were calculated for the different species. The following parameter values were used: Liver blood flow—1.3 L/h/kg (human), 2.1 L/h/kg (dog), 4.2 L/h/kg (rat); specific liver weight—21 g/kg (human), 39 g/kg (dog), 32 g/kg (rat); microsomal protein content—40 mg/g.
(§3) With the described assay only phase-I metabolism of microsomes is reflected, e.g. typically oxidoreductive reactions by cytochrome P450 enzymes and flavin mono-oxygenases (FMO) and hydrolytic reactions by esterases (esters and amides).

[2] = Metabolic stability in vitro, dog liver microsomes (calculation of Fmax); type: in vitro ADME; settings: comparison table with comparative examples
Description: as §1, §2, §3

[3] = Stability in buffer at pH 7.4 (HPLC); type: physicochemical; settings: buffer pH 7.4, 37° C.
Description: 0.3 mg of the test compound are solved in 0.1 ml dimethylsulfoxide and 0.4 ml acetonitrile. For complete dissolution the HPLC vial with the sample solution is sonified for about 20 seconds. Then 1.0 ml of the buffer solution is added, and the sample is again treated in the ultrasonic bath.
90 g of sodium chloride, 13.61 g of potassium dihydrogen phosphate and 83.35 g of 1 M sodium hydroxide solution are made up to 1 liter with Millipore water and then diluted 1:10.
10 μl portions of the sample solution are analysed by HPLC to determine the amount of the test compound over a period of 24 hours at 37° C. The peak areas in percentage are used for quantification.
Agilent 1100 with DAD (G1315B), binary pump (G1312A), autosampler (G1329A), column oven (G1316A), thermostat (G1330B); column: Kromasil 100 C18, 250 mm×4 mm, 5 μm; column temperature: 37° C.; eluent A: water+5 ml of perchloric acid/liter, eluent B: acetonitrile.
The ratio of the peak areas (F) at different time points in relation to the peak areas at the starting time are shown in Table 2 for representative examples: […]

[4] = In vitro stability in rat plasma (HPLC detection); type: in vitro ADME; settings: 37° C.
Description: 1 mg of test compound is dissolved in 1.25 ml dimethylsulfoxide. Then 1.25 ml water are added. 0.5 ml of this sample solution are mixed with 0.5 ml heparinized and 37° C. warm plasma (wistar rat plasma or human plasma). A first sample (10 μl) is immediately taken for HPLC analysis. In the period up to 4 h after the start of incubation further 10 μl aliquots are taken after 30, 60, 90, 120 and 240 minutes and the amount of the test compound is determined.
Agilent 1100 with DAD (G1315A), binary pump (G1312A), autosampler (G1329A), column oven (G1316A), thermostat (G1330B); column: Kromasil 100 C18, 250 mm×4 mm, 5 μm; column temperature: 45° C.; eluent A: water+5 ml of perchloric acid/liter, eluent B: acetonitrile.

[5] = tested on: HeLa human cervical tumor cells; test: Proliferation assay, HeLa cells (crystal violet); type: cell-based; settings: HeLa, comparison table with comparative examples, read-out: Inhibition of cell proli-feration, cell line: HeLa, IC50
Description: Cultivated tumor cells (MCF7, hormone dependent human mammary carcinoma cells, ATCC HTB22; NCI-H460, human non-small cell lung carcinoma cells, ATCC HTB-177; DU 145, hormone-independent human prostate carcinoma cells, ATCC HTB-81; HeLa-MaTu, human cervical carcinoma cells, EPO-GmbH, Berlin; HeLa-MaTu-ADR, multidrug-resistant human cervical carcinoma cells, EPO-GmbH, Berlin; HeLa human cervical tumor cells, ATCC CCL-2; B16F10 mouse melanoma cells, ATCC CRL-6475) were plated at a density of 5000 cells/well (MCF7, DU145, HeLa-MaTu-ADR), 3000 cells/well (NCI-H460, HeLa-MaTu, HeLa), or 1000 cells/well (B16F10) in a 96-well multititer plate in 200 μl of their respective growth medium supplemented 10% fetal calf serum. After 24 hours, the cells of one plate (zero-point plate) were stained with crystal violet (see below), while the medium of the other plates was replaced by fresh culture medium (200 μl), to which the test substances were added in various concentrations (0 μM, as well as in the range of 0.01-30 μM; the final concentration of the solvent dimethyl sulfoxide was 0.5%). The cells were incubated for 4 days in the presence of test substances. Cell proliferation was determined by staining the cells with crystal violet: the cells were fixed by adding 20 μl/measuring point of an 11% glutaric aldehyde solution for 15 minutes at room temperature. After three washing cycles of the fixed cells with water, the plates were dried at room temperature. The cells were stained by adding 100 μl/measuring point of a 0.1% crystal violet solution (pH 3.0). After three washing cycles of the stained cells with water, the plates were dried at room temperature. The dye was dissolved by adding 100 μl/measuring point of a 10% acetic acid solution. The extinction was determined by photometry at a wavelength of 595 nm. The change of cell number, in percent, was calculated by normalization of the measured values to the extinction values of the zero-point plate (=0%) and the extinction of the untreated (0 μm) cells (=100%). The IC50 values were determined by means of a 4 parameter fit.

SMILES	Rat liver microsomes; Fmax [%] [1]	Dog liver microsomes; Fmax [%] [2]	% Test Compound after 24 h [F(t = 24 h) × 100/F(t = 0 h)] [3]	% Test Compound after 4 h [F(t = 24 h) × 100/F(t = 0 h)] [4]	also measured
COC(C(=O)Nc1ccc(-c2ccc3nc(Nc4ccccc4C#N)nn3c2)cc1)c1ccccc1 (stereo not shown) [reference compound]	19%				
N#Cc1ccccc1Nc1nc2ccc(-c3ccc(NC(=O)C(F)(F)c4ccccc4)cc3)cn2n1 [reference compound]	27%				
CCOc1cc(S(C)(=O)=O)ccc1Nc1nc2ccc(-c3ccc(C(=O)NCc4ccc(F)cc4)c(C)c3)cn2n1 [reference compound]		12%			
N#Cc1ccccc1Nc1nc2ccc(-c3ccc(NC(=O)Cc4ccc(F)cc4)cc3)cn2n1 [reference compound]	40%				
CNCCOC(=O)N(c1nc2ccc(-c3ccc(NC(=O)[C@H](C)c4ccc(F)cc4)cc3)cn2n1)c1ccc(S(C)(=O)=O)cc1OC.Cl [Example 7.1, 2-(methylamino)ethyl [6-(4-{[(2R)-2-(4-fluorophenyl)propanoyl]amino}phenyl)[1,2,4]triazolo[1,5-α]pyridin-2-yl][2-methoxy-4-(methylsulfonyl)phenyl]carbamate hydrochloride]			48%	80%	
N#Cc1ccccc1Nc1nc2ccc(-c3ccc(NC(=O)C(F)c4ccccc4)cc3)cn2n1 (stereo not shown) [reference compound]	26%				
COc1cc(C(=O)N2CCOCC2)ccc1Nc1nc2ccc(-c3ccc(NC(=O)Cc4ccc(F)cc4)cc3)cn2n1 [reference compound]	48%				
COc1cc(C(=O)NCC(F)(F)F)ccc1Nc1nc2ccc(-c3ccc(NC(=O)Cc4ccc(F)cc4)cc3)cn2n1 [reference compound]		40%			
COc1cc(S(C)(=O)=O)ccc1N(C(=O)OC(OC(=O)[C@@H](N)C(C)C)C(C)C)c1nc2ccc(-c3ccc(NC(=O)[C@H](C)c4ccc(F)cc4)cc3)cn2n1 (single isomer, unassigned) [Example 5.2, (1R or S)-1-({[6-(4-{[(2R)-2-(4-fluorophenyl)propanoyl]amino}phenyl)[1,2,4]triazolo[1,5-α]pyridin-2-yl][2-methoxy-4-(methylsulfonyl)phenyl]carbamoyl}oxy)-2-methylpropyl-L-valinate hydrochloride]			48%	44%	
COc1cc(S(C)(=O)=O)ccc1N(C(=O)OC(C)OC(=O)[C@@H](NC(=O)[C@@H](N)C(C)C)C(C)C)c1nc2ccc(-c3ccc(NC(=O)[C@H](C)c4ccc(F)cc4)cc3)cn2n1.Cl (mixture of isomers) [Example 2.4, (1RS)-1-({[6-(4-{[(2R)-2-(4-fluorophenyl)propanoyl]amino}phenyl)[1,2,4]triazolo[1,5-α]pyridin-2-yl][2-methoxy-4-(methylsulfonyl)phenyl]carbamoyl}oxy)ethyl L-valyl-L-valinate hydrochloride]			48%	45%	
COc1cc(S(C)(=O)=O)ccc1N(C(=O)OC(C)OC(=O)[C@@H](N)C(C)(C)C)c1nc2ccc(-c3ccc(NC(=O)[C@H](C)c4ccc(F)cc4)cc3)cn2n1.Cl (mixture of isomers) [Example 3.2, (1RS)-1-({[6-(4-{[(2R)-2-(4-fluorophenyl)propanoyl]amino}phenyl)[1,2,4]triazolo[1,5-α]pyridin-2-yl][2-methoxy-4-(methylsulfonyl)phenyl]carbamoyl}oxy)ethyl 3-methyl-L-valinate hydrochloride]			0.0%	0.0%	
COc1cc(N2CCOC2=O)ccc1Nc1nc2ccc(-c3ccc(NC(=O)Cc4ccc(F)cc4)cc3)cn2n1 [reference compound]		17%			
COc1ccccc1Nc1nc2ccc(-c3ccc(NC(=O)Cc4ccccc4)cc3)cn2n1 [reference compound]	40%				
N#Cc1ccccc1Nc1nc2cnc(-c3ccc(NC(=O)Cc4ccc(F)cc4)cc3)cn2n1 [reference compound]					IC50 [5]: 1500 nM
COc1cc(S(C)(=O)=O)ccc1Nc1nc2ccc(-c3ccc(NC(=O)Cc4ccc(F)cc4)cc3)cn2n1 [reference compound]		10%			
CS(=O)(=O)c1ccc(Nc2nc3ccc(-c4ccc(NC(=O)Cc5ccc(F)cc5)cc4)cn3n2)c(OCC(F)(F)F)c1 [reference compound]		25%			
COc1cc(S(C)(=O)=O)ccc1N(C(=O)OCOC(=O)[C@@H](N)C(C)(C)C)c1nc2ccc(-c3ccc(NC(=O)[C@H](C)c4ccc(F)cc4)cc3)cn2n1.Cl [Example 1.5, ({[6-(4-{[(2R)-2-(4-fluorophenyl)propanoyl]amino}phenyl)[1,2,4]triazolo[1,5-α]pyridin-2-yl][2-methoxy-4-(methylsulfonyl)phenyl]carbamoyl}oxy)methyl 3-methyl-L-valinate hydrochloride]			0.0%	0.0%	
N#Cc1c(F)cccc1Nc1nc2ccc(-c3ccc(NC(=O)Cc4ccc(F)cc4)cc3)cn2n1 [reference compound]		15%			
COc1cc(S(C)(=O)=O)ccc1N(C(=O)OCOC(=O)[C@@H](NC(=O)[C@@H](N)CCCCN)C(C)C)c1nc2ccc(-c3ccc(NC(=O)[C@H](C)c4ccc(F)cc4)cc3)cn2n1.Cl.Cl [Example 2.1, ({[6-(4-{[(2R)-2-(4-fluorophenyl)propanoyl]amino}phenyl)[1,2,4]triazolo[1,5-α]pyridin-2-yl][2-methoxy-4-(methylsulfonyl)phenyl]carbamoyl}oxy)methyl L-lysyl-L-valinate dihydrochloride]			0.0%	0.0%	
